According to the NIST ThermoML archive (doi:10.1016/j.fluid.2016.05.004):
± gives the expanded uncertainty stated by the source.

Settings: Liquid, Closed cell (Static) method

vapor or sublimation pressure (233.19 K) [kPa] | vapor or sublimation pressure (243.22 K) [kPa] | vapor or sublimation pressure (253.21 K) [kPa] | vapor or sublimation pressure (263.21 K) [kPa] | Structure (SMILES) | vapor or sublimation pressure (233.17 K) [kPa] | vapor or sublimation pressure (243.24 K) [kPa] | vapor or sublimation pressure (253.22 K) [kPa] | vapor or sublimation pressure (263.24 K) [kPa] | vapor or sublimation pressure (273.18 K) [kPa] | vapor or sublimation pressure (273.19 K) [kPa] | vapor or sublimation pressure (243.23 K) [kPa] | vapor or sublimation pressure (253.14 K) [kPa] | vapor or sublimation pressure (263.2 K) [kPa]
 |  |  |  | FC(F)(F)C1(F)OC1(F)F (stereo not given) [2,2,3-trifluoro-3-(trifluoromethyl)oxirane] | 58 ± 10 | 95 ± 10 | 145 ± 10 | 216 ± 10 | 310 ± 10 |  |  |  | 
1009 ± 12 | 1432 ± 12 | 1970 ± 13 | 2645 ± 15 | O=C=O [carbon dioxide] |  |  |  |  |  | 3473 ± 16 |  |  | 
 |  |  |  | FC(F)=C(F)C(F)(F)F [hexafluoropropene] | 64 ± 10 |  |  |  |  | 334 ± 10 | 102 ± 10 | 157 ± 10 | 233 ± 10
